Measured values: PMC10331583, “Control of fibrosis with enhanced safety via asymmetric inhibition of prolyl‐tRNA synthetase 1” (EMBO Molecular Medicine, 2023)
Values joined by “and” are separate entries in the source; they are usually repeats but may differ in a detail not shown here. Equal values may be shown once. Read-outs that look alike come from different tables or passages of the source.

Key:
[1] = tested on: TNT Quick Coupled Transcription/Translation System (luciferase synthesis); assay type: biochemical
[2] = tested on: WI‐26 VA4 cells; test: Puromycin incorporation assay; assay type: cell-based, human; details: for activity at 0.001 µM: WI26VA4, 1 nM; for activity at 0.01 µM: WI26VA4, 10 nM; for activity at 0.03 µM: WI26VA4, 30 nM; for activity at 0.1 µM: WI26VA4, 100 nM; for activity at 1 µM: WI26VA4, 1000 nM; for activity at 3 µM: WI26VA4, 3000 nM
Method in brief: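 WI‐26 VA4 cell lysates prepared in carbonate-bicarbonate buffer with protease inhibitor; 400 ng protein coated on ELISA plates 18 h at 4°C. Puromycin incorporated into proteins detected by antibody ELISA, absorbance 450 nm with 620 nm reference; outlier values excluded based on replicates and adjacent concentrations.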

[3] = tested on: phosphorylation of SMAD2; test: Phosphorylation of SMAD2 (TGF‐β pathway), immunoblot; assay type: cell-based, human; details: TGF‐β 2 ng/ml, 15 h
Protocol: The levels of proteins were determined by immunoblot assay. […] The lowest concentration at which protein levels started to decrease was normalized by IC50 values for collagen level and used as the y‐axis value. […] The slope and R^2 value were calculated using GraphPad Prism 7.0. […] The activation of the TGF‐β pathway was determined by monitoring the phosphorylation of SMAD2. Immunoblot images are representative of three biologically independent experiments. • The band intensities of the immunoblot images in (C) were quantified using ImageJ (n = 3; One‐way ANOVA; *P < 0.05, **P < 0.01, ***P < 0.001; mean ± SEM). Source data are available online for this figure.

[4] = CellTiter‐Glo assay (cytotoxicity); details: human, WI-26 VA4 cells, CC50 (CellTiter-Glo), 72 h (Fig 5B)
[5] = Homo sapiens, read-out: Puromycin, % of control, average
[6] = Homo sapiens, read-out: Puromycin, % of control, single replicate

## O=C(CC1NCCCC1O)Cn1cnc2cc(Br)c(Cl)cc2c1=O (stereo not shown) [HF, Halofuginone, reference compound]
[1]
  TNT-luciferase LogIC50 (best-fit value): 2.211
[1]; 6 nM
  TNT-luciferase % of control, average: 106.95 % of control
[1]; 6 nM, 0.006 µM
  TNT-luciferase % of control: 109.98 % of control and 110.97 % of control and 123.24 % of control and 104.46 % of control and 101.11 % of control and 91.92 % of control
[1]; 10 nM
  TNT-luciferase % of control, average: 114.54 % of control
[1]; 10 nM, 0.01 µM
  TNT-luciferase % of control: 118.82 % of control and 112.93 % of control and 98.69 % of control and 124.51 % of control and 116.16 % of control
[1]; 20 nM
  TNT-luciferase % of control, average: 104.66 % of control
[1]; 20 nM, 0.02 µM
  TNT-luciferase % of control: 102.13 % of control and 100.65 % of control and 102.62 % of control and 110.31 % of control and 109.47 % of control and 102.79 % of control
[1]; 36 nM
  TNT-luciferase % of control, average: 110.74 % of control
[1]; 36 nM, 0.036 µM
  TNT-luciferase % of control: 113.42 % of control and 108.02 % of control and 129.62 % of control and 107.80 % of control and 102.79 % of control
[1]; 60 nM
  TNT-luciferase % of control, average: 109.84 % of control
[1]; 60 nM, 0.06 µM
  TNT-luciferase % of control: 112.44 % of control and 104.58 % of control and 103.60 % of control and 118.66 % of control and 113.65 % of control and 106.13 % of control
[1]; 100 nM
  TNT-luciferase % of control, average: 95.21 % of control
[1]; 100 nM, 0.1 µM
  TNT-luciferase % of control: 67.76 % of control and 70.21 % of control and 67.27 % of control and 122.01 % of control and 126.18 % of control and 117.83 % of control
[1]; 200 nM
  TNT-luciferase % of control, average: 33.45 % of control
[1]; 360 nM
  TNT-luciferase % of control, average: 4.01 % of control
[1]; 600 nM
  TNT-luciferase % of control, average: 0.26 % of control
[1]; 1000 nM
  TNT-luciferase % of control, average: 0.09 % of control
[1]; 2000 nM
  TNT-luciferase % of control, average: 0.02 % of control
[1]; 2000 nM, 2 µM
  TNT-luciferase % of control: 0.04 % of control
[1]; read-out: TNT-luciferase IC50 (best-fit value)
  IC50: 163 nM
[2]; 3 nM, 0.003 µM
  Puromycin, % of control, single replicate: 87.66 % of control and 110.89 % of control and 102.72 % of control and 101.10 % of control and 86.71 % of control and 84.36 % of control and 98.41 % of control and 95.09 % of control and 95.08 % of control and 108.41 % of control and 105.39 % of control and 104.60 % of control
[2]; 10 nM, 0.01 µM
  Puromycin, % of control, single replicate: 100.34 % of control and 96.77 % of control and 97.76 % of control and 87.44 % of control and 83.58 % of control and 96.23 % of control and 94.53 % of control
[2]; 30 nM, 0.03 µM
  Puromycin, % of control, single replicate: 113.27 % of control and 109.87 % of control and 110.26 % of control and 116.66 % of control and 114.17 % of control and 107.05 % of control and 108.24 % of control and 108.11 % of control and 111.56 % of control and 111.23 % of control and 110.22 % of control
[2]; 100 nM, 0.1 µM
  Puromycin, % of control, single replicate: 90.48 % of control and 92.59 % of control and 92.61 % of control and 84.84 % of control and 84.75 % of control and 85.14 % of control and 85.25 % of control and 85.34 % of control and 84.22 % of control
[2]; 300 nM, 0.3 µM
  Puromycin, % of control, single replicate: 10.84 % of control and 35.41 % of control and 34.99 % of control and 10.87 % of control and 10.33 % of control and 31.26 % of control and 32.35 % of control and 31.90 % of control and 32.62 % of control and 32.23 % of control and 32.21 % of control
[2]; 3000 nM, 3 µM
  Puromycin, % of control, single replicate: 3.08 % of control (2×) and 2.96 % of control and 3.28 % of control and 2.21 % of control and 2.18 % of control and 2.60 % of control and 2.20 % of control and 3.16 % of control and 3.05 % of control
[2]; 10000 nM, 10 µM
  Puromycin, % of control, single replicate: 3.89 % of control and 1.98 % of control and 2.07 % of control and 2.17 % of control and 4.12 % of control and 4.05 % of control and 1.27 % of control and 1.14 % of control and 1.39 % of control and 2.12 % of control and 2.04 % of control
[2]; 30000 nM, 30 µM
  Puromycin, % of control, single replicate: 2.04 % of control and 1.64 % of control and 1.93 % of control and 3.75 % of control and 1.32 % of control and 1.84 % of control and 1.82 % of control and 1.41 % of control
[2]; [5]
  activity at 0.001 µM: 102%
  activity at 0.01 µM: 94.8%
  activity at 0.03 µM: 111%
  activity at 0.1 µM: 88%
  activity at 1 µM: 3.03%
  activity at 3 µM: 2.66%
[2]; [6]
  activity at 0.001 µM: 101%
  activity at 0.01 µM: 86.6%
  activity at 0.03 µM: 117%
  activity at 0.1 µM: 94.6%
  activity at 1 µM: 2.13%
  activity at 3 µM: 2.13%
[2]; Homo sapiens, WI26VA4, 3 nM, read-out: Puromycin, % of control, average
  activity at 0.003 µM: 98.4%
[2]; Homo sapiens, WI26VA4, 300 nM, read-out: Puromycin, % of control, average
  activity at 0.3 µM: 26.8%
[2]; Homo sapiens, WI26VA4, 10000 nM, read-out: Puromycin, % of control, average
  activity at 10 µM: 2.36%
[2]; Homo sapiens, WI26VA4, 30000 nM, read-out: Puromycin, % of control, average
  activity at 30 µM: 1.87%
[2]; Homo sapiens, WI26VA4, log(inhibitor) vs. response, variable slope (four parameters), read-out: Puromycin, IC50 (best-fit value)
  IC50: 200 nM
[2]; log(inhibitor) vs. response, variable slope (four parameters)
  Puromycin, HillSlope (best-fit value): -2.795
[2]; log(inhibitor) vs. response, variable slope (four parameters), concentration in nM
  Puromycin, LogIC50 (best-fit value): 2.301
[3]
  SMAD2 phosphorylation: reduced SMAD2 phosphorylation
[4]
  CC50 at 72 h: 51 nM
